Measurements from PubChem BioAssay (NCI).
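Dose response: 5 concentrations. Exposure: 48 h. Format: 96-well plates. Endpoint: linear interpolation; highest concentration if not reached. TGI: concentration producing complete growth inhibition.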

Columns and labels:
Experiment in all cases: DTP human tumour cell line panel, 48 h
KM12 colon = tested on: KM12 colon
NCI-H460 lung = tested on: NCI-H460 lung
MCF7 breast = tested on: MCF7 breast
SK-MEL-28 melanoma = tested on: SK-MEL-28 melanoma
SW-620 colon = tested on: SW-620 colon
IGROV1 ovarian = tested on: IGROV1 ovarian
M14 melanoma = tested on: M14 melanoma
RXF 393 renal = tested on: RXF 393 renal
A498 renal = tested on: A498 renal
T-47D breast = tested on: T-47D breast
OVCAR-8 ovarian = tested on: OVCAR-8 ovarian
HT29 colon = tested on: HT29 colon
NCI/ADR-RES ovarian = tested on: NCI/ADR-RES ovarian
SK-OV-3 ovarian = tested on: SK-OV-3 ovarian
SF-539 CNS = tested on: SF-539 CNS
U251 CNS = tested on: U251 CNS
SNB-19 CNS = tested on: SNB-19 CNS
COLO 205 colon = tested on: COLO 205 colon
CCRF-CEM leukemia = tested on: CCRF-CEM leukemia

Compound	TGI (KM12 colon) [µM]	TGI (NCI-H460 lung) [µM]	TGI (MCF7 breast) [µM]	TGI (SK-MEL-28 melanoma) [µM]	TGI (SW-620 colon) [µM]	TGI (IGROV1 ovarian) [µM]	TGI (M14 melanoma) [µM]	TGI (RXF 393 renal) [µM]	TGI (A498 renal) [µM]	TGI (T-47D breast) [µM]	TGI (OVCAR-8 ovarian) [µM]	TGI (HT29 colon) [µM]	TGI (NCI/ADR-RES ovarian) [µM]	TGI (SK-OV-3 ovarian) [µM]	TGI (SF-539 CNS) [µM]	TGI (U251 CNS) [µM]	TGI (SNB-19 CNS) [µM]	TGI (COLO 205 colon) [µM]	TGI (CCRF-CEM leukemia) [µM]
CCCCC1Cc2ccccc2-c2nc3ccccc3n21 (stereo not given)	38.5	28.8	32.9	31	33.9	32.9	36.3	34.5	30.6	29.4	34.9	29.6	33.5	37.5	41.4	30.9	–	–	–
C[N+]1(C)CCc2cc(O)c(O)cc2C1Cc1ccc(O)c(O)c1 (stereo not given)	> 100	> 100	43.3	> 100	76.7	> 100	> 100	> 100	> 100	54.7	> 100	> 100	> 100	> 100	> 100	> 100	> 100	> 100	–
C1=Cc2cc3c(c4nccc(c24)N1)OCO3	23.6	> 30.6	16.1	> 71	> 57.8	8.24	54.5	5.64	> 85.1	34.8	> 46.8	–	> 67.2	55.9	–	> 100	> 34.7	23	> 100
N#C[C@@H](c1ccccn1)c1ncccc1[N+](=O)[O-]	–	> 100	> 100	> 100	> 100	> 100	> 100	> 100	> 100	> 100	> 100	> 100	> 100	> 100	–	> 100	> 100	> 100	> 100
CCOC(=O)c1cc2c3ccn(Cc4ccccc4)c3c3c(C)[nH]oc3c2n1	> 100	> 100	> 100	> 100	> 100	> 100	> 100	> 100	> 100	> 100	> 100	–	> 100	–	–	> 100	> 100	> 100	> 100
CC(C)=C[C@H]1CCC2(OCCO2)[C@]1(C)COCc1ccccc1	> 100	59	> 100	> 100	> 100	–	99.4	31.7	66.7	> 100	> 100	–	> 100	> 100	61.7	–	> 100	32.3	34.5
CN(C(=O)Cc1cccc(N=C=S)c1)[C@H]1CCCC[C@@H]1N1CCCC1	32.1	36.3	27.5	32.8	36.2	28.1	41.1	25.9	32.8	26.8	42.2	26.4	79.8	69.4	–	32.3	47.6	25.2	32.9
NNC(=S)N/N=C(/C(=O)Nc1ccc(Cl)c(Cl)c1)C(C1OC(=O)c2ccccc21)[N+](=O)[O-] (stereo not given)	> 100	> 100	> 100	> 100	> 100	> 100	> 100	> 100	> 100	> 100	> 100	> 100	> 100	> 100	> 100	> 100	–	–	> 100
CC1S/C(=N\N=C2/C(=O)Nc3ccc(Br)cc32)N(C2CCCCC2)C1=O (stereo not given)	20.8	18.8	35	23.8	46.3	–	22.7	14.9	12.5	19.6	–	53.2	15.6	14	16.3	7.73	14.8	33.4	> 100
N#C/C(=C/NC(N)=S)C(N)=O	> 100	> 100	> 100	> 100	> 100	> 100	> 100	> 100	> 100	> 100	> 100	> 100	> 100	> 100	> 100	> 100	> 100	> 100	–
O=C1c2ccccc2C(=O)N1CCCCNOCCCN1C(=O)c2ccccc2C1=O	> 100	> 100	> 100	> 100	> 100	> 100	> 100	> 100	> 100	> 100	> 100	> 100	> 100	> 100	–	> 100	> 100	> 100	> 100
CCOC1=NC(O)c2cccn2-c2sccc21 (stereo not given)	> 100	> 100	> 100	> 100	> 100	–	> 100	> 100	> 100	> 100	> 100	> 100	> 100	> 100	> 100	> 100	> 100	> 100	–
